Laboratory results from the Kinase Knowledgebase extract (Sharma et al. 2016).

Tests used:
EGFR = EGFR (UniProt P00533)
EGFR (murine) [1] = target: EGFR (murine) (UniProt P00533); details: nih3t3/c7
EGFR (murine) [2] = target: EGFR (murine) (UniProt P00533); details: 3t3

EGFR, sequence (P00533 whole entry, looked up): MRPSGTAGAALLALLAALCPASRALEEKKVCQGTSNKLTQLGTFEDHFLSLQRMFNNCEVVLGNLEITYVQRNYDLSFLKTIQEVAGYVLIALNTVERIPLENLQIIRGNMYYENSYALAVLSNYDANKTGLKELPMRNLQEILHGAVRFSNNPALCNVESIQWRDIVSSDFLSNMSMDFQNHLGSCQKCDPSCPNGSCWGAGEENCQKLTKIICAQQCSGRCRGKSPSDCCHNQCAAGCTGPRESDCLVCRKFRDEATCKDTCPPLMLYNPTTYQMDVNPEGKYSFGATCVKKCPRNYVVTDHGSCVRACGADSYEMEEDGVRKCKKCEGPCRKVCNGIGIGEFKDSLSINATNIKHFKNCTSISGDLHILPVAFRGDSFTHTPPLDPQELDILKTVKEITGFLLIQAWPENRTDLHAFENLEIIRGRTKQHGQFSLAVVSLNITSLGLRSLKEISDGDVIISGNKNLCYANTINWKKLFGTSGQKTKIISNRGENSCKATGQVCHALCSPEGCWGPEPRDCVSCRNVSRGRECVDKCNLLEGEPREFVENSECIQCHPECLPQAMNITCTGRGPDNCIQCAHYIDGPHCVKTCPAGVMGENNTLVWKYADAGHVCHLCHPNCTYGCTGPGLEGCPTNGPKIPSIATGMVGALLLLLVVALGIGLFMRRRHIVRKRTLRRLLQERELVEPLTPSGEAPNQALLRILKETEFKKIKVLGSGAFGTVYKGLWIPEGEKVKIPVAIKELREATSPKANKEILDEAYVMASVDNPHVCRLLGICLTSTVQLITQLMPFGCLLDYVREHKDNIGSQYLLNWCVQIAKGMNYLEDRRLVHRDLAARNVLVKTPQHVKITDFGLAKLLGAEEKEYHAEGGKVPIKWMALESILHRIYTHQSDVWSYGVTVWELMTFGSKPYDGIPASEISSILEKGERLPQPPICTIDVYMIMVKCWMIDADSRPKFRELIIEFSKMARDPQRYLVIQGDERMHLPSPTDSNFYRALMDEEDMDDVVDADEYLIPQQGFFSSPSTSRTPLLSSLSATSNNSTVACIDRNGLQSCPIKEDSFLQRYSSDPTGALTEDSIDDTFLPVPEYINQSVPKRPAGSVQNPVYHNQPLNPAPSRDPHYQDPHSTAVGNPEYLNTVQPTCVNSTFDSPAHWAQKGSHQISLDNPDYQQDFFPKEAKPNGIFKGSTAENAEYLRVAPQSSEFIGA
EGFR (murine), sequence (P00533 whole entry, looked up): as above

| Compound | IC50 (EGFR) | IC50 (EGFR (murine) [1]) | IC50 (EGFR (murine) [2]) |
| --- | --- | --- | --- |
| O=C(O)CCc1c(/C=C2\C(=O)Nc3cc(-c4ccccc4)ccc32)[nH]c2c1CCCC2 | > 100 µM | > 100 µM |  |
| CCOc1cccc(-c2ccc3c(c2)NC(=O)/C3=C\c2[nH]cc(C)c2CCC(=O)O)c1 | > 100 µM |  |  |
| CN(C)S(=O)(=O)c1ccc2c(c1)/C(=C/c1cc3ccccc3[nH]1)C(=O)N2 | > 100 µM | > 100 µM |  |
| CNS(=O)(=O)c1ccc2c(c1)/C(=C/c1c(C)[nH]c3ccccc13)C(=O)N2 | > 100 µM | > 100 µM |  |
| Cc1[nH]c2ccccc2c1/C=C1\C(=O)Nc2ccc(S(=O)(=O)N(C)C)cc21 | > 100 µM | > 100 µM |  |
| CCOC(=O)c1[nH]c(/C=C2\C(=O)Nc3ccccc32)c(CCC(=O)O)c1C | > 100 µM |  |  |
| CN(C)S(=O)(=O)c1ccc2c(c1)/C(=C/c1ccc3[nH]ccc3c1)C(=O)N2 | > 100 µM | > 100 µM |  |
| Cc1[nH]c2ccccc2c1/C=C1\C(=O)Nc2ccc(S(N)(=O)=O)cc21 | > 100 µM | > 100 µM |  |
| CNS(=O)(=O)c1ccc2c(c1)/C(=C/c1c[nH]c3ccccc13)C(=O)N2 | > 100 µM | > 100 µM |  |
| CC(=O)Nc1ccc2c(c1)NC(=O)/C2=C/c1ccc(OCCN2CCOCC2)cc1-c1cccs1 | > 100 µM | 79 µM | 28.6 µM |
| COc1ccc(-c2ccc3c(c2)NC(=O)/C3=C\c2[nH]c3c(c2CCC(=O)O)CCCC3)cc1 |  | > 100 µM |  |
| CNS(=O)(=O)c1ccc2c(c1)/C(=C/c1ccc3[nH]ccc3c1)C(=O)N2 | > 100 µM | > 100 µM |  |
| O=C(O)CCc1c(/C=C2\C(=O)Nc3ccc(Br)cc32)[nH]c2c1CCCC2 | > 100 µM | > 100 µM |  |
| O=C(O)CCc1c(/C=C2\C(=O)Nc3ccccc32)[nH]c2c1CCCC2 | > 100 µM |  |  |
| CN(C)S(=O)(=O)c1ccc2c(c1)/C(=C/c1c[nH]c3ccccc13)C(=O)N2 | > 100 µM | > 100 µM |  |
| COc1ccccc1-c1ccc2c(c1)NC(=O)/C2=C\c1[nH]c2c(c1CCC(=O)O)CCCC2 | > 100 µM | > 100 µM |  |
| NS(=O)(=O)c1ccc2c(c1)/C(=C/c1ccc3[nH]ccc3c1)C(=O)N2 | > 100 µM | > 100 µM |  |
| Cc1c[nH]c(/C=C2\C(=O)Nc3cccc(C)c32)c1CCC(=O)O | > 100 µM |  |  |
| COc1ccc2c(c1)NC(=O)/C2=C\c1[nH]c2c(c1CCC(=O)O)CCCC2 | > 100 µM |  |  |
